According to US20260374773A1, “MULTI-CYCLIC IRAK AND FLT3 INHIBITING COMPOUNDS AND USES THEREOF” (CHILDREN'S HOSPITAL MEDICAL CENTER, priority 2022, published 2026):

target: T1, FLT3 D835Y (Homo sapiens, UniProt P36888, D835Y); assay: DiscoverX KINOMEscan active site-directed competition binding, FLT3 D835Y; conditions: Table 12; no ATP
T1 sequence (P36888 27-993 D835Y): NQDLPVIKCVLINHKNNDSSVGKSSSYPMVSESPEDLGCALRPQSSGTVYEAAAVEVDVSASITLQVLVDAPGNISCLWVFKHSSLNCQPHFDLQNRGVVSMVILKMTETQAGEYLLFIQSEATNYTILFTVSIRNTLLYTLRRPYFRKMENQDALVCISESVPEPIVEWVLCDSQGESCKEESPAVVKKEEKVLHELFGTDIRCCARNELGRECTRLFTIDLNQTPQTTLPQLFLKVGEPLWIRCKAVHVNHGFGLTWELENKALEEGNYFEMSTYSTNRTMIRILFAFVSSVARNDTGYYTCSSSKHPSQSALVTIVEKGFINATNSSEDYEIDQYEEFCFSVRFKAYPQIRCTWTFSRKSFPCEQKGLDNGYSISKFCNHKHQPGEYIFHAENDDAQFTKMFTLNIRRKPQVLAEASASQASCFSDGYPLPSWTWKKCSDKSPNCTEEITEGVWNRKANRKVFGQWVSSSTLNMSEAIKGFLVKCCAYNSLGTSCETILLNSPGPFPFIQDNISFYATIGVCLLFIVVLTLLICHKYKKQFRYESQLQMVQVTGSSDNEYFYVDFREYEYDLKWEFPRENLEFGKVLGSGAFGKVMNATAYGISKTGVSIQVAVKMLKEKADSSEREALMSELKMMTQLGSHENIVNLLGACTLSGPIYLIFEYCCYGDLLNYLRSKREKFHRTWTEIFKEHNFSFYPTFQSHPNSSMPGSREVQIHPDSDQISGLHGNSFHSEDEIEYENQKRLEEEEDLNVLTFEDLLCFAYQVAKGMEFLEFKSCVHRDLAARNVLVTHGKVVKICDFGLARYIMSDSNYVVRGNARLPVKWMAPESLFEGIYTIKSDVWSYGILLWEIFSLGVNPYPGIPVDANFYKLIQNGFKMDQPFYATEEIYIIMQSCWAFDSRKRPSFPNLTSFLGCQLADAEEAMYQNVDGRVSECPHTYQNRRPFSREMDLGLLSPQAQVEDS
Source text: (§1) Kinase binding data were obtained for various exemplary compounds prepared according to Examples 1-8 using the DiscoverX KINOMEscan® active site-directed competition binding site-directed assay protocol described below. […] As a result, the data report thermodynamic interaction affinities (Kd values), rather than IC50 values that are dependent on ATP concentrations. The assay uses a DNA-tagged version of the protein kinase, and an immobilized ligand bound to a solid support. Compounds that directly or indirectly prevent kinase binding to the immobilized ligand reduce the amount of kinase captured on the solid support, which is detected using an ultra-sensitive qPCR method. Affinity constants reported from the assay have been reported to be independent of the immobilized ligand used that is coupled to the solid support (See supplemental information in Fabian, M. A. et. al., (2005) Nat. Biotechnol. 23, 329-336; Wodicka, L. M. et. al., (2010) Chem. Biol. 17, 1241-1249.)
Kinase-tagged T7 phage strains were prepared in an E. coli host derived from the BL21 strain. E. coli were grown to log-phase and infected with T7 phage and incubated with shaking at 32 °C until lysis. The lysates were centrifuged and filtered to remove cell debris. The remaining kinases were produced in HEK-293 cells and subsequently tagged with DNA for qPCR detection. Streptavidin-coated magnetic beads were treated with biotinylated small molecule ligands for 30 minutes at room temperature to generate affinity resins for kinase assays. The liganded beads were blocked with excess biotin and washed with blocking buffer (SeaBlock (Pierce), 1% BSA, 0.05% Tween 20, 1 mM DTT) to remove unbound ligand and to reduce non-specific binding. […] Test compounds were prepared as 111x stocks in 100% DMSO. Kds were determined using an 11-point 3-fold compound dilution series with three DMSO control points. All compounds for Kd measurements are distributed by acoustic transfer (non-contact dispensing) in 100% DMSO. The compounds were then diluted directly into the assays such that the final concentration of DMSO was 0.9%. All reactions were performed in polypropylene 384-well plates. Each was a final volume of 0.02 mL. The assay plates were incubated at room temperature with shaking for 1 hour and the affinity beads were washed with wash buffer (1×PBS, 0.05% Tween 20). The beads were then re-suspended in elution buffer (1×PBS, 0.05% Tween 20, 0.5 μM nonbiotinylated affinity ligand) and incubated at room temperature with shaking for 30 minutes. The kinase concentration in the eluates was measured by qPCR. Binding constants (Kds) were calculated with a standard dose-response curve using the Hill equation. The Hill Slope was set to −1. Curves were fitted using a non-linear least square fit with the Levenberg-Marquardt algorithm.
as §1, with “9-12” for “1-8”
Kinase-tagged T7 phage strains were prepared in an E. coli host derived from the BL21 strain. […]

Going from `COc1cn2ncc(-c3nc(N[C@H]4CNCC[C@@H]4F)c(C#N)cc3F)c2nc1C1CC1` [Compound 7, 6-(5-cyclopropyl-6-methoxypyrazolo[1,5-a]pyrimidin-3-yl)-5-fluoro-2-(((3S,4S)-4-fluoropiperidin-3-yl)amino)nicotinonitrile] to `COc1cn2ncc(-c3nc(N[C@H]4CNCC[C@@H]4F)c(C#N)cc3F)c2nc1C(C)(C)O` [Compound 10, 5-fluoro-2-(((3S,4S)-4-fluoropiperidin-3-yl)amino)-6-(5-(2-hydroxypropan-2-yl)-6-methoxypyrazolo[1,5-a]pyrimidin-3-yl)nicotinonitrile], the Kd falls from 0.42 nM to 0.21 nM (2-fold). The second binds more tightly here.

`COc1cn2ncc(-c3nc(N[C@H]4CNCC[C@@H]4F)c(F)cc3F)c2nc1C(C)(C)O` [Compound 13, 2-(3-(3,5-difluoro-6-(((3S,4S)-4-fluoropiperidin-3-yl)amino)pyridin-2-yl)-6-methoxypyrazolo[1,5-a]pyrimidin-5-yl)propan-2-ol] gave a Kd of under 0.17 nM.

same assay, conditions: Table 18; no ATP

`COc1cn2ncc(-c3cncc(N[C@H]4CNCC[C@@H]4F)n3)c2nc1C1CC1` [Compound 12a, 6-(5-cyclopropyl-6-methoxypyrazolo[1,5-a]pyrimidin-3-yl)-N-((3S,4S)-4-fluoropiperidin-3-yl)pyrazin-2-amine] and `COc1cn2ncc(-c3ccnc(N[C@H]4CNCC[C@@H]4F)n3)c2nc1C1CC1` [Compound 7a, 4-(5-cyclopropyl-6-methoxypyrazolo[1,5-a]pyrimidin-3-yl)-N-((3S,4S)-4-fluoropiperidin-3-yl)pyrimidin-2-amine] are within 1.5-fold of each other in Kd: 0.62 nM for the first, 0.79 nM for the second.

Compared with `COc1cn2ncc(-c3nc(N[C@@H]4CCCNC4)ncc3F)c2nc1C1CC1` [Compound 14a, (R)-4-(5-cyclopropyl-6-methoxypyrazolo[1,5-a]pyrimidin-3-yl)-5-fluoro-N-(piperidin-3-yl)pyrimidin-2-amine], `COc1cn2ncc(-c3nc(N[C@H]4CNCC[C@@H]4F)ncc3F)c2nc1C1CC1` [Compound 15a, 4-(5-cyclopropyl-6-methoxypyrazolo[1,5-a]pyrimidin-3-yl)-5-fluoro-N-((3S,4S)-4-fluoropiperidin-3-yl)pyrimidin-2-amine] is higher in Kd: under 0.17 nM for the first, 0.34 nM for the second.

With `COc1cn2ncc(-c3nc(N[C@H]4CNCC[C@@H]4F)ncc3F)c2nc1C(C)(C)O` [Compound 6a, 2-(3-(5-fluoro-2-(((3S,4S)-4-fluoropiperidin-3-yl)amino)pyrimidin-4-yl)-6-methoxypyrazolo[1,5-a]pyrimidin-5-yl)propan-2-ol] the Kd was under 0.17 nM.
